Data: ChEMBL document CHEMBL1151120, “Plant antimutagenic agents, 3. Coumarins” (J Nat Prod, 1988)

Legend:
Type in all cases: functional, Salmonella enterica subsp. enterica serovar Typhimurium, T98
Salmonella typhimurium [1] = assay: Antimutagenic activity in Salmonella Typhimurium […] assessed as inhibition of 2-aminoanthracene-induced mutation at 300 ug/plate after 72 hrs in presence of Ames S-9 fraction
Salmonella typhimurium [2] = assay: Antimutagenic activity in Salmonella Typhimurium […] assessed as inhibition of acetylaminofluorene-induced mutation at 600 ug/plate after 72 hrs in presence of Ames S-9 fraction
Salmonella typhimurium [3] = assay: Antimutagenic activity in Salmonella Typhimurium […] assessed as inhibition of 2-nitroflorene-induced mutation at 600 ug/plate after 72 hrs
Salmonella typhimurium [4] = assay: Antimutagenic activity in Salmonella Typhimurium […] assessed as inhibition of 2-aminoanthracene-induced mutation at 150 ug/plate after 72 hrs in presence of Ames S-9 fraction
Salmonella typhimurium [5] = assay: Antimutagenic activity in Salmonella Typhimurium […] assessed as inhibition of 2-nitroflorene-induced mutation at 300 ug/plate after 72 hrs
Salmonella typhimurium [6] = assay: Antimutagenic activity in Salmonella Typhimurium […] assessed as inhibition of benzo[a]pyrene-induced mutation at 300 ug/plate after 72 hrs in presence of Ames S-9 fraction
Salmonella typhimurium [7] = assay: Antimutagenic activity in Salmonella Typhimurium […] assessed as inhibition of benzo[a]pyrene-induced mutation at 600 ug/plate after 72 hrs in presence of Ames S-9 fraction
Salmonella typhimurium [8] = assay: Antimutagenic activity in Salmonella Typhimurium […] assessed as inhibition of acetylaminofluorene-induced mutation at 150 ug/plate after 72 hrs in presence of Ames S-9 fraction
Salmonella typhimurium [9] = assay: Antimutagenic activity in Salmonella Typhimurium […] assessed as inhibition of benzo[a]pyrene-induced mutation at 150 ug/plate after 72 hrs in presence of Ames S-9 fraction
Salmonella typhimurium [10] = assay: Antimutagenic activity in Salmonella Typhimurium […] assessed as inhibition of acetylaminofluorene-induced mutation at 300 ug/plate after 72 hrs in presence of Ames S-9 fraction
Salmonella typhimurium [11] = assay: Antimutagenic activity in Salmonella Typhimurium […] assessed as inhibition of 2-aminoanthracene-induced mutation at 600 ug/plate after 72 hrs in presence of Ames S-9 fraction
Salmonella typhimurium [12] = assay: Antimutagenic activity in Salmonella Typhimurium […] assessed as inhibition of 2-nitroflorene-induced mutation at 150 ug/plate after 72 hrs

| Compound | inhibition (INH) (Salmonella typhimurium [1]) | inhibition (INH) (Salmonella typhimurium [2]) | inhibition (INH) (Salmonella typhimurium [3]) | inhibition (INH) (Salmonella typhimurium [4]) | inhibition (INH) (Salmonella typhimurium [5]) | inhibition (INH) (Salmonella typhimurium [6]) | inhibition (INH) (Salmonella typhimurium [7]) | inhibition (INH) (Salmonella typhimurium [8]) | inhibition (INH) (Salmonella typhimurium [9]) | inhibition (INH) (Salmonella typhimurium [10]) | inhibition (INH) (Salmonella typhimurium [11]) | inhibition (INH) (Salmonella typhimurium [12]) |
| --- | --- | --- | --- | --- | --- | --- | --- | --- | --- | --- | --- | --- |
| COc1c2occc2cc2ccc(=O)oc12 [METHOXSALEN] | 0% | 39% | 25% | 0% | 39% | 76% | 86% | 0% | 58% | 21% | 44% | 5% |
| CC(C)=CCOc1c2occc2cc2ccc(=O)oc12 [PENTOSALEN] | 0% | – | 58% | 0% | 43% | 87% | 90% | 35% | 86% | 56% | 81% | 22% |
| O=c1ccc2ccc(O)cc2o1 [UMBELLIFERONE] | – | – | – | – | – | – | – | – | – | – | 14% | – |
| COc1c2ccoc2cc2oc(=O)ccc12 [BERGAPTEN] | 0% | 0% | 40% | 0% | 41% | 67% | 75% | 0% | 61% | 0% | 23% | 27% |
| COc1ccc2ccc(=O)oc2c1CC=C(C)C [OSTHOLE] | 0% | 74% | 80% | 0% | 55% | 49% | 54% | 51% | 13% | 56% | 68% | 29% |
| O=c1ccc2ccccc2o1 [COUMARIN] | 0% | 36% | 73% | 0% | 17% | 16% | 53% | 5% | 10% | 28% | 22% | 24% |
| O=c1ccc2cc3ccoc3cc2o1 [PSORALEN] | – | – | – | – | – | – | – | – | – | – | 60% | – |
